Tests used:
Assay type in all cases: in vivo, rat
[1] = test system: formalin-induced pain behavior; assay: formalin-induced pain behavior (flinching) after intrathecal pre-administration of peptide
Method: In Example 5, 10^−3M (10 nmol/10 μl) D-EKC/D (3), (5), or (7), Spantide I, or saline (10 μl) was administered to intrathecally catheterized rats via catheters and then 4 hours later, 50 μl of 2% formalin was administered subcutaneously to hind paws of rats. The number of flinching (pain behavior) was determined for 60 minutes after formalin administration, so that the degree of pain could be evaluated. During the 10-minute period after formalin administration (referred to as phase I), pain behavior was measured once every 2 minutes (1 minute per measurement). During the period from 10 minutes to 60 minutes after formalin administration (referred to as phase II), pain behavior was measured once every 5 minutes (1 minute per measurement), so that the degree of pain could be evaluated. During phase I, behavior (phasic pain) resulting from chemical stimulation accompanying formalin administration was observed. During phase II, tonic pain following the phasic pain was observed.
The horizontal axis indicates time (minutes) after formalin administration and the vertical axis indicates the measured number of pain behavior per minute.

[2] = test system: carrageenan-induced inflammation; assay: carrageenan-induced increase in paw size after subcutaneous pre-administration of peptide to plantar; conditions: 10^-3M (100 nmol/100 μl) subcutaneous to plantar
Method: 100 μl of saline, 10^−3M (100 nmol/100 μl) D-EKC/D (3), or 10^−3M (100 nmol/100 μl) Spantide II (N^6-[(3-pyridinyl)carbonyl]-D-Lys-L-Pro-3-(3-pyridinyl)-L-Ala-L-Pro-3,4-dichloro-D-Phe-L-Asn-D-Trp-L-Phe-D-Trp-L-Leu-L-Nle-NH2) (SEQ ID NO: 21) was subcutaneously administered to rat plantar. Four (4) hours later, 100 μl (2 mg/100 μl) of 2% carrageenan was subcutaneously administered to rat plantar. Paw size was measured every 10 minutes for 60 minutes after carrageenan administration. The paw size (control) before carrageenan administration was designated as the basal level and increases in paw size were then calculated.
Procedures similar to those in Experiment B were performed, except for administration of carrageenan at 8 hours after administration of saline, D-EKC/D (3), or Spantide II.
Procedures similar to those in Experiment B were performed except that the test with Spantide II was not conducted and carrageenan was administered at 14 hours after administration of saline or D-EKC/D (3).

[3] = test system: carrageenan-induced thermal hyperalgesia; assay: withdrawal latency to noxious thermal stimulation after carrageenan, intrathecal pre-administration of peptide; conditions: 10^-3M (10 nmol/10 μl) peptide intrathecal; 2% carrageenan 4 hours later; FIG. 9B
Method: In Example 6, 10^−3M (10 nmol/10 μl) D-EKC/D (3), (5), or (7), Spantide I, or saline (10 μl) was administered to intrathecally catheterized rats via catheters. Four hours later, 100 μl of 2% carrageenan (2 mg/100 μl) was subcutaneously administered to rat plantar.
Meanwhile, noxious thermal stimulation was applied to paw plantar using infrared rays at 10-minute intervals after carrageenan administration. The time (latency period) required for withdrawal response to take place was measured. The latency period before untreated rats following noxious thermal stimulation was designated as the control latency period.

[4] = test system: SP-induced thermal hyperalgesia; assay: SP-induced thermal hyperalgesia (withdrawal latency) after intrathecal pre-administration of peptide; conditions: 10^-3M (10 nmol/10 μl) peptide intrathecal, FIG. 7
From the text: In this test, the effects of intrathecal pre-administration with D-EKC/D (1), (2), and (3) on the induction of thermal hyperalgesia following intrathecal administration of SP were confirmed using as an index thermal hyperalgesia, which is one type of pain-related behavior. The effects can be evaluated based on withdrawal latency period, which is the time required for withdrawal response to take place after application of noxious thermal stimulation to plantar using infrared rays.
In Example 4, 10^−3M (10 nmol/10 μl) D-EKC/D (1), (2), or (3) was administered to intrathecally catheterized rats via catheters, intrathecal administration of 10^−6M (10 pmol/10 μl) SP was performed at 4 hours and at 8 hours after administration of D-EKC/D, the presence or the absence of hyperalgesia following intrathecal administration of SP was evaluated based on the time (latency period) required for withdrawal response to take place, the latency period following SP administration in rats pretreated with D-EKC/D and the latency period resulting from administration of SP alone were compared, and thus the effects of preadministration of D-EKC/D (1), (2), and (3) were evaluated.

Substance: Ala-Tyr-Gln-Leu-Glu-His-Thr-Phe-Gln-DTrp-Leu-Leu-NH2 (AYQLEHTFQXLL; HELM PEPTIDE1{A.Y.Q.L.E.H.T.F.Q.[dW].L.L.[am]}$$$$V2.0; N-terminus assumed; SMILES CC(C)C[C@H](NC(=O)[C@H](CC(C)C)NC(=O)[C@@H](Cc1c[nH]c2ccccc12)NC(=O)[C@H](CCC(N)=O)NC(=O)[C@H](Cc1ccccc1)NC(=O)[C@@H](NC(=O)[C@H](Cc1c[nH]cn1)NC(=O)[C@H](CCC(=O)O)NC(=O)[C@H](CC(C)C)NC(=O)[C@H](CCC(N)=O)NC(=O)[C@H](Cc1ccc(O)cc1)NC(=O)[C@H](C)N)[C@@H](C)O)C(N)=O) [D-EKC/D (3)]
- numbers of pain behavior during phase I ([1]; 10^-3M (10 nmol/10 μl) peptide intrathecal, 2% formalin 4 hours later, 0-10 minutes after formalin): significantly decreased
- numbers of pain behavior during phase II ([1]; 10^-3M (10 nmol/10 μl) peptide intrathecal, 2% formalin 4 hours later, 10-60 minutes after formalin): significantly decreased
- suppressing effects on formalin-induced pain behavior compared with Spantide I ([1]; 10^-3M intrathecal, formalin 4 hours later): sustained longer compared with the effects of Spantide I
- increases in paw size accompanying carrageenan-induced inflammation ([2]; carrageenan 4 hours later, FIG. 10B): suppressed increases in paw size accompanying carrageenan-induced inflammation more significantly than administration of Spantide II
- increases in paw size accompanying carrageenan-induced inflammation ([2]; carrageenan 8 hours later, FIG. 10C): suppressed increases in paw size
- increases in paw size accompanying carrageenan-induced inflammation ([2]; carrageenan 14 hours later, FIG. 10D): suppressed increases in paw size
- withdrawal time (latency period) [3]: significant increases
- effect on latency period following administration of SP ([4]; 10^-6M SP 4 hours later, saline about 20 seconds, SP about 13 seconds): significantly attenuated
- effect on latency period following administration of SP ([4]; 10^-6M SP 8 hours later): significant attenuation

Reference: patent US8853359B2, “Endokinin C/D-derived peptides” (University of Miyazaki, priority 2009, dated 2014)
